Among the data in patent US9309285B2, “Macrocyclic broad spectrum antibiotics” (priority 2012, dated 2016) are IC50 and MIC values, retold here.

For test [1], the target named is T1, E. coli SPase (Escherichia coli, UniProt P00803).
T1 construct: Full length His-tagged E. coli and S. aureus SPase proteins were expressed in E. coli BL21; His tag; made in house; host or cells: E. coli BL21 (DE3)
The test can be described thus: SPase enzyme inhibition assay, fluorogenic peptide substrate, E. coli. It is filed as biochemical. The following applies: 3 nM E. coli SPase, 20 μM substrate, 10 minutes pre-incubation, room temperature; read-out: IC 50 (nM) E. coli. How it is done:
(§1) Briefly, for expression of E. coli SPase, saturated overnight cultures grown in 20 ml of Luria-Bertani medium supplemented with ampicillin were subcultures into 1.5 L of Luria-Bertani, and shaken at 37° C. until an optical density at 600 nm of 0.4-0.5 was achieved. […] S. aureus SPase was expressed and purified similarly, with the following exceptions. […] Resin bound protein was washed in a similar buffer containing 1% Elugent in place of Triton X-100 prior to protein elution in wash buffer supplemented with 300 mM imidazole. […] All protein concentrations were determined by BCA assay.
(§2) Enzyme master solution was prepared by diluting Escherichia coli or Staphylococcus aureus SPase protein into reaction buffer to a final concentration of 3 nM or 10 nM respectively. Reaction buffer consisted of 20 mM NaKHPO4 pH 7.4, 100 mM NaCl, and 1% v/v Elugent™ detergent. Reactions were initiated by the addition of substrate to a final concentration of 20 μM. Reaction progress was monitored by measuring the increase in fluorescence signal (excitation at 314 nm, emission at 416 nm) using a SpectraMax M2 fluorescence microplate reader. […] Three-folder serial dilutions of test compounds, starting at 10 μM, were prepared in enzyme mix solution and incubated at room temperature for 10 minutes. Following this incubation, fluorogenic substrate was added to a final concentration of 20 μM and the increase in fluorescence, corresponding to substrate cleavage, was monitored continuously at room temperature for 1 hour. Initial reaction rates were calculated based on the rate of increase in fluorescence during the reaction. Reaction rates were plotted as a function of compound concentration, and IC50 values were determined nonlinear regression analysis (SoftMaxPro 5.4, Molecular Devices™) of the sigmoidal dose-response curve.

Test [2] concerns the target T2, S. aureus SPase (Staphylococcus aureus, UniProt P0A070).
T2 construct: Full length His-tagged E. coli and S. aureus SPase proteins were expressed in E. coli BL21; His tag; made in house; host or cells: E. coli BL21 (DE3)
T2 sequence (P0A070 1-191): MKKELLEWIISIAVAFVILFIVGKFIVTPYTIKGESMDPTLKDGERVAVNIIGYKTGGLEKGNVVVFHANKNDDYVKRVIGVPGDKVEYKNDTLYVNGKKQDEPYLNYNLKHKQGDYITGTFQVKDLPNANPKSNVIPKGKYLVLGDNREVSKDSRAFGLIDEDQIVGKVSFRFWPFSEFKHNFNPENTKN
The test is described as follows: SPase enzyme inhibition assay, fluorogenic peptide substrate, S. aureus. It is filed as biochemical. On the procedure:
as §1, §2

Test [3] deals with Methicillin Resistant Staphylococcus aureus strain USA 300 (NRS384). The test can be described thus: MIC by broth micro-dilution (CLSI), S. aureus. Type of test: cell-based. The following applies: Staphylococcus aureus, MRSA / NRS 384 / USA300; MRSA USA 300 (NRS384); cation adjusted Mueller Hinton Broth + 0.002% Tween-80; 35° C., 22 hours; read-out: MIC (μg/mL) S. aureus. How it is done:
In vitro antimicrobial activity of each compound was determined by measuring minimal inhibitor concentrations (MICs) using the broth micro-dilution technique as approved by the Clinical and Laboratory Standards Institute (CLSI) (Methods for Dilution Antimicrobial Susceptibility Tests for Bacteria that Grow Aerobically; Approved Standard—Eighth Edition. CLSI document M07-A8. Wayne, Pa.: Clinical and Laboratroy Standards; 2009). Antibacterial activity was measure against two strains of bacteria: a Methicillin Resistant Staphylococcus aureus strain USA 300 (NRS384) and a strain of Escherichia coli MC4100 harboring the IMP4213, which results in increased outer-membrane permeability (B Martin and Silhavy T. Imp/OstA is required for cell envelope biogenesis in Escherichia coli. (2002) Molecular Microbiology, 45(5), 1289-1302). Cells were inoculated onto plates of Trypyticase Soy Agar or Luria Agar respectively and grown at 35° C. for 20 hours. Inocula suspensions were prepared by scraping cells into 1 ml of testing media (cation adjusted Mueller Hinton Broth supplemented with 0.002% v/v Tween-80) and diluting to a final OD600 nm of 0.01.
Test compounds were prepared in DMSO at a concentration of 10 mg/ml. These compound stocks were diluted into testing media at a concentration of 64 μg/ml and serial 2-fold dilutions were made in the same media, in 96-well U bottom microtiter dishes, for a total of 10 compound concentrations. Inocula suspensions were added to the 2-fold serial dilutions of test compounds to a final density of OD OD600 nm of 0.0005 and incubated at 35° C. for 22 hours.
(Dilution methods test growth across graded concentrations, often in twofold steps.)

Positions of bridges follow the written chain, without caps; N, C: chain ends. Non-standard residues stand in square brackets, D forms with d. Residues, ends and D or L forms follow the SMILES beside them. *: point of attachment. boroAla((+)-pinanediol) = C[C@H](N*)B1O[C@@H]2C[C@@H]3C[C@@H](C3(C)C)[C@]2(C)O1; Biphenylcarbonyl(4'-Bu) = CCCCc1ccc(-c2ccc(C(=O)*)cc2)cc1; Aad = N[C@@H](CCCC(=O)O)C(=O)O; Orn = NCCC[C@H](N)C(=O)O

T1 sequence (P00803 whole entry): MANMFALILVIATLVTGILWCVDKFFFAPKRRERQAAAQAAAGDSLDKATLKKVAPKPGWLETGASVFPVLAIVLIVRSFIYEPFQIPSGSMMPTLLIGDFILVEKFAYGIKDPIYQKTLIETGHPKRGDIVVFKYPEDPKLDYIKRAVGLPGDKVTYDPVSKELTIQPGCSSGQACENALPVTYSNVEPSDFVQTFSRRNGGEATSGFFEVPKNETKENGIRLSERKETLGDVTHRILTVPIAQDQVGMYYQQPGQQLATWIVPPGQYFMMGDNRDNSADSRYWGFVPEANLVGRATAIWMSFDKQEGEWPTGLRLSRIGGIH

As to `CCCCc1ccc(-c2ccc(C(=O)N(C)[C@@H]3C(=O)N[C@@H](C)C(=O)N[C@H](C(=O)O)Cc4ccc(O)c(c4)-c4cc3ccc4O)cc2)cc1` [Compound 116], the IC50 in test [1] and in test [2] was > 10000 nM in each case. The MIC in test [3] is > 64 µg/mL.
Consider `C[C@@H]1NC(=O)[C@@H](N(C)C(=O)[C@H](CCN)NC(=O)c2ccc(-c3ccc(Cl)cc3)cc2)c2ccc(O)c(c2)-c2cc(ccc2O)C[C@@H](C(=O)O)NC1=O` [Compound 128], for which the IC50 in test [1] was determined as 1.5 nM; in test [2], 3500 nM.
As to `CCCCc1ccc(-c2ccc(C(=O)N[C@@H](CCCCN)C(=O)NCCC(=O)N(C)[C@@H]3C(=O)N[C@@H](C)C(=O)N[C@H](C(=O)O)Cc4ccc(O)c(c4)-c4cc3ccc4O)cc2)cc1` [Compound 117], the IC50 was found to be 760 nM in test [1] and 3900 nM in test [2]. The MIC in test [3] was > 64 µg/mL.
In the same order, the values of `CCCCCCCCCCCCCC(=O)NCCC(=O)N[C@@H](CCCCN)C(=O)N(C)[C@@H]1C(=O)N[C@@H](C)C(=O)N[C@H](C(=O)O)Cc2ccc(O)c(c2)-c2cc1ccc2O` [Compound 105] are 1.3 nM, 16 nM and 0.63 µg/mL.
Regarding `CNC(=O)[C@@H]1CCCN1C(=O)[C@H](C)NC(=O)[C@@H]1Cc2ccc(O)c(c2)-c2cc(ccc2O)[C@H](N(C)C(=O)[C@H](CCCCN)NC(=O)c2ccc(-c3ccc(Cl)cc3)cc2)C(=O)N[C@@H](C)C(=O)N1` [Compound 136], the figures for the IC50 in test [1] and in test [2] were 44 nM and 47 nM, respectively.
In the same order, the values of `CCCCCCCCCCCCCC(=O)N[C@@H](CCCCN)C(=O)N(C)[C@@H]1C(=O)N[C@@H](C)C(=O)N[C@H](C(=O)N[C@@H](C)B(O)O)Cc2ccc(O)c(c2)-c2cc1ccc2O` [Compound 119] are 8.6 nM and 33 nM.
For `CCCCCCCC(=O)NCCC(=O)N[C@@H](CCCCN)C(=O)N(C)[C@@H]1C(=O)N[C@@H](C)C(=O)N[C@H](C(N)=O)Cc2ccc(O)c(c2)-c2cc1ccc2O` [Compound 130] the same measures were 160 nM and 580 nM.
For the compound `CCCCCCCCCCCCCC(=O)N[C@@H](CCCCN)C(=O)N(C)[C@@H]1C(=O)N[C@@H](C)C(=O)N[C@H](C(=O)NCB(O)O)Cc2ccc(O)c(c2)-c2cc1ccc2O` [Compound 118], the IC50 in test [1] amounted to 7.6 nM; in test [2], 31 nM.
For `CCCCCCCC(=O)N[C@@H](CCCCN)C(=O)N(C)[C@@H]1C(=O)N[C@@H](C)C(=O)N[C@H](C(=O)O)Cc2ccc(O)c(c2)-c2cc1ccc2O` [Compound 124] the same measures were 23 nM and 1000 nM.
Take `C[C@@H]1NC(=O)[C@@H](N(C)C(=O)[C@H](CCCCN)NC(=O)c2ccc(-c3ccc(Cl)cc3)cc2)c2ccc(O)c(c2)-c2cc(ccc2O)C[C@@H](C(=O)O)NC1=O` [Compound 127]: the IC50 was 1.4 nM in test [1] and 440 nM in test [2].
In the case of `CCCCc1ccc(-c2ccc(C(=O)NC[C@@H](C)C(=O)N[C@@H](CCCCN)C(=O)N(C)[C@@H]3C(=O)N[C@@H](C)C(=O)N[C@H](C(=O)N[C@@H](C)C(=O)N4CCC[C@H]4C(N)=O)Cc4ccc(O)c(c4)-c4cc3ccc4O)cc2)cc1` [Compound 138], the IC50 in test [1] came out at 30 nM; in test [2] it was 78 nM.
With `CCCCc1ccc(-c2ccc(C(=O)N[C@@H](CCCCN)C(=O)N[C@H]3CCC(=O)NCCC[C@@H](C(=O)N[C@@H](C)B4O[C@@H]5C[C@@H]6C[C@@H](C6(C)C)[C@]5(C)O4)NC(=O)[C@H](C)NC3=O)cc2)cc1` [Compound 202] ({Biphenylcarbonyl(4'-Bu)}-KEA[Orn]-{boroAla((+)-pinanediol)}; lactam 2-4), the IC50 worked out at 28 nM in test [1] and 200 nM in test [2].
Consider `CCCCc1ccc(-c2ccc(C(=O)N[C@@H](CCCCN)C(=O)N(C)[C@@H]3C(=O)N[C@@H](C)C(=O)N[C@H](C(=O)O)Cc4ccc(O)c(c4)-c4cc3ccc4O)cc2)cc1` [Compound 110], for which the IC50 in test [1] stood at 1.4 nM; in test [2], 350 nM.
For `CCCCCCCCCCCCCC(=O)N[C@@H](CCCCN)C(=O)N(C)[C@@H]1C(=O)N[C@@H](C)C(=O)N[C@H](C(=O)O)Cc2ccc(O)c(c2)-c2cc1ccc2O` [Compound 111] the same measures were 2.2 nM and 160 nM.
In the same order, the values of `CCCCc1ccc(-c2ccc(C(=O)N[C@@H](CCCCN)C(=O)N(C)[C@@H]3C(=O)N[C@@H](C)C(=O)N[C@H](C(=O)N[C@@H](C)B4O[C@@H]5C[C@@H]6C[C@@H](C6(C)C)[C@]5(C)O4)CCCCCc4cc3ccc4OC)cc2)cc1` [Compound 208] are 680 nM and > 10000 nM.
In the same order, the values of `CCCCc1ccc(-c2ccc(C(=O)N[C@@H](CCCCN)C(=O)N[C@H]3CCCC(=O)NCCCC[C@@H](C(=O)N[C@@H](C)B4O[C@@H]5C[C@@H]6C[C@@H](C6(C)C)[C@]5(C)O4)NC(=O)[C@H](C)NC3=O)cc2)cc1` [Compound 203] ({Biphenylcarbonyl(4'-Bu)}-K[Aad]AK-{boroAla((+)-pinanediol)}; lactam 2-4) are 8.9 nM and 81 nM.
On to `CCCCCCCC(=O)NCCC(=O)N[C@@H](CCCCN)C(=O)N(C)[C@@H]1C(=O)N[C@@H](C)C(=O)N[C@H](C(=O)N[C@@H](C)C(=O)N2CCC[C@H]2C(N)=O)Cc2ccc(O)c(c2)-c2cc1ccc2O` [Compound 131], for which the results for the IC50 in test [1] and in test [2] were 180 nM and 3.3 nM, respectively.
In the same order, the values of `CCCCCCCC(=O)NCCC(=O)N[C@@H](CCCCN)C(=O)N(C)[C@@H]1C(=O)N[C@@H](C)C(=O)N[C@H](C(=O)N[C@@H](C)C(N)=O)Cc2ccc(O)c(c2)-c2cc1ccc2O` [Compound 129] are 370 nM and 140 nM.
On to `CCCCCCCC(=O)NCCC(=O)N[C@@H](CCCCN)C(=O)N(C)[C@@H]1C(=O)N[C@@H](C)C(=O)N[C@H](C(=O)O)Cc2ccc(O)c(c2)-c2cc1ccc2O` [Compound 122], for which the IC50 came to 27 nM in test [1] and 130 nM in test [2].
For `C[C@@H]1NC(=O)[C@@H](N(C)C(=O)[C@H](CCCCN)NC(=O)c2ccc(-c3ccc(Cl)cc3)cc2)c2ccc(O)c(c2)-c2cc(ccc2O)C[C@@H](C(=O)N[C@@H](C)C(=O)N(C)C)NC1=O` [Compound 137] the same measures were 350 nM and 3100 nM.
In the same order, the values of `CCCCc1ccc(-c2ccc(C(=O)N[C@@H](CCCCN)C(=O)N[C@H]3CCC(=O)NCCCC[C@@H](C(=O)N[C@@H](C)B4O[C@@H]5C[C@@H]6C[C@@H](C6(C)C)[C@]5(C)O4)NC(=O)[C@H](C)NC3=O)cc2)cc1` [Compound 201] ({Biphenylcarbonyl(4'-Bu)}-KEAK-{boroAla((+)-pinanediol)}; lactam 2-4) are 15 nM and 150 nM.
For `CCCCc1ccc(-c2ccc(C(=O)NC[C@@H](C)C(=O)N[C@@H](CCCCN)C(=O)N(C)[C@@H]3C(=O)N[C@@H](C)C(=O)N[C@H](C(=O)N[C@@H](C)B4OC5C[C@@H]6C[C@@H](C6(C)C)[C@]5(C)O4)Cc4ccc(O)c(c4)-c4cc3ccc4O)cc2)cc1` (some centres unmarked) [Compound 120] the same measures were 18 nM and 220 nM.
